These compounds were tested against T1, recombinant Axl tyrosine kinase (Homo sapiens, UniProt P30530) (assay: In vitro Axl kinase assay (AlphaScreen), Test (a)). Details: Test (a); read-out: IC50 versus Axl tyrosine kinase.
T1 construct: encompassing amino acids 473 to 894 of Axl; GST (N); made in house; host or cells: SF126 insect cells
T1 sequence (P30530 473-894): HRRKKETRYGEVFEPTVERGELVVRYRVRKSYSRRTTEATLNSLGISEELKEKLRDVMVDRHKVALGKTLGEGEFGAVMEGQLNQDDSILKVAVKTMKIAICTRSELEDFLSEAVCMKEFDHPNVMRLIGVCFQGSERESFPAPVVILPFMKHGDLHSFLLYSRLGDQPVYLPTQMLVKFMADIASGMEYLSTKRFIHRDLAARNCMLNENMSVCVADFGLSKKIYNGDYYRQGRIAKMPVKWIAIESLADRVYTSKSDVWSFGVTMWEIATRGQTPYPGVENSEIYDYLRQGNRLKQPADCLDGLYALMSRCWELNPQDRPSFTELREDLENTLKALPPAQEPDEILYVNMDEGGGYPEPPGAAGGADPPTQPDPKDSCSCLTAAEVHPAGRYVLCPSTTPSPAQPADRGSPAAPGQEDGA
Type: biochemical

SMILES | IC50 [nM]
COc1cccc2nc(-c3cc(-c4cn(C5CCN(C)CC5)nc4CO)cnc3N)oc12 [Example 41.42] | ~0.2

Same assay, conditions: test compound at 1 μM; first value quoted

SMILES | % Axl tyrosine kinase inhibition at 1 μM concentration [%]
Nc1ncc(-c2cnn(C3CCNCC3)c2)cc1-c1nc2ccc(F)c(F)c2o1 [Example 38.1] | 99.5
Nc1ncc(-c2cnn(C3CCNCC3)c2)cc1-c1nc2cccc(F)c2o1 [Example 38.3] | 100.0
COc1cccc2nc(-c3cc(-c4cnn(C5CCNCC5)c4)cnc3N)oc12 [Example 38.5] | 100.0
COc1cccc2oc(-c3cc(-c4cnn(C5CCNCC5)c4)cnc3N)nc12 [Example 38A.1] | 97.8
Nc1ncc(-c2cnn(C3CCNCC3)c2)cc1-c1nc2c(F)cccc2o1 [Example 38A.2] | 100.0
N#Cc1cccc2oc(-c3cc(-c4cnn(C5CCNCC5)c4)cnc3N)nc12 [Example 38A.3] | 99.9
CN1CCC(n2cc(-c3cnc(N)c(-c4nc5cnccc5o4)c3)cn2)CC1 [Example 41.1] | 99.8
CN1CCCC(n2cc(-c3cnc(N)c(-c4nc5ccccc5o4)c3)cn2)C1 (stereo not shown) [Example 41.2] | 99.3
CN1CCC(n2cc(-c3cnc(N)c(-c4nc5ncccc5o4)c3)cn2)CC1 [Example 41.4] | 99.8
CN1CCC(Cn2cc(-c3cnc(N)c(-c4nc5ccccc5o4)c3)cn2)CC1 [Example 41.6] | 99.9
CN1CC(n2cc(-c3cnc(N)c(-c4nc5ccccc5o4)c3)cn2)C1 [Example 41.8] | 99.7
CN1CCC(n2cc(-c3cnc(N)c(-c4nc5ccccc5o4)c3)cn2)C1 (stereo not shown) [Example 41.9] | 100.0
CN1CCC(n2cc(-c3cnc(N)c(-c4nc5cccc(F)c5o4)c3)cn2)CC1 [Example 41.10] | 99.7
CN1CC(Cn2cc(-c3cnc(N)c(-c4nc5ccccc5o4)c3)cn2)C1 [Example 41.11] | 74.7
CCOc1nn(C2CCN(C)CC2)cc1-c1cnc(N)c(-c2nc3ccccc3o2)c1 [Example 41.13] | 100.0
COc1nn(C2CCN(C)CC2)cc1-c1cnc(N)c(-c2nc3ccccc3o2)c1 [Example 41.14] | 100.0
CN1CCC(Cn2cc(-c3cnc(N)c(-c4nc5ccccc5o4)c3)cn2)C1 (stereo not shown) [Example 41.15] | 98.4
CN1CCC(n2cc(-c3cnc(N)c(-c4nc5ccc(F)c(F)c5o4)c3)cn2)CC1 [Example 41.16] | 98.3
Cc1nn(C2CCN(C)CC2)c(C)c1-c1cnc(N)c(-c2nc3ccccc3o2)c1 [Example 41.17] | 84.8
Cc1c(-c2cnc(N)c(-c3nc4ccccc4o3)c2)cnn1C1CCN(C)CC1 [Example 41.18] | 100.0
Cc1nn(C2CCN(C)CC2)cc1-c1cnc(N)c(-c2nc3cccnc3o2)c1 [Example 41.20] | 99.7
Cc1nn(C2CCN(C)CC2)cc1-c1cnc(N)c(-c2nc3ccccc3o2)n1 [Example 41.21] | 100.0
Cc1nn(C2CCN(C)CC2)cc1-c1cnc(N)c(-c2nc3ncccc3o2)c1 [Example 41.22] | 100.0
Cc1nn(C2CCN(C)CC2)cc1-c1cnc(N)c(-c2nc3c(F)cccc3o2)c1 [Example 41.23] | 100.0
COc1cccc2oc(-c3cc(-c4cnn(C5CCN(C)CC5)c4)cnc3N)nc12 [Example 41.24] | 92.1
CN1CCC(n2cc(-c3cnc(N)c(-c4nc5c(C#N)cccc5o4)c3)cn2)CC1 [Example 41.25] | 99.8

SMILES | % Axl tyrosine kinase inhibition at 1 μM concentration [%]
COc1cccc2nc(-c3cc(-c4cnn(C5CCN(C)CC5)c4)cnc3N)oc12 [Example 41.27] | 100.0
CN1CCC(n2cc(-c3cnc(N)c(-c4nc5ccccc5o4)c3)c(C#N)n2)CC1 [Example 41.28] | 100.0
CC(O)c1nn(C2CCN(C)CC2)cc1-c1cnc(N)c(-c2nc3ccccc3o2)c1 (stereo not shown) [Example 41.29] | 99.9
CN1CCC(n2cc(-c3cnc(N)c(-c4nc5ccccc5o4)c3)c(C(=O)N(C)C)n2)CC1 [Example 41.30] | 99.5
CN1CCC(n2cc(-c3cnc(N)c(-c4nc5ccccc5o4)c3)c(N(C)C)n2)CC1 [Example 41.31] | 99.9
CN1CCC(n2cc(-c3cnc(N)c(-c4nc5c(F)cccc5o4)c3)c(CO)n2)CC1 [Example 41.32] | 100.0
CNC(=O)c1nn(C2CCN(C)CC2)cc1-c1cnc(N)c(-c2nc3ccccc3o2)c1 [Example 41.33] | 99.6
COCc1nn(C2CCN(C)CC2)cc1-c1cnc(N)c(-c2nc3c(F)cccc3o2)c1 [Example 41.34] | 100.0
CN1CCC(n2cc(-c3cnc(N)c(-c4nc5ccccc5o4)c3)c(C(N)=O)n2)CC1 [Example 41.35] | 99.8
CNC(=O)c1cccc2nc(-c3cc(-c4cnn(C5CCN(C)CC5)c4)cnc3N)oc12 [Example 41.36] | 100.0
CN1CCC(n2cc(-c3cnc(N)c(-c4nc5c(F)cccc5o4)c3)c(C(=O)N(C)C)n2)CC1 [Example 41.37] | 99.5
COCc1nn(C2CCN(C)CC2)cc1-c1cnc(N)c(-c2nc3c(C#N)cccc3o2)c1 [Example 41.39] | 100.0
Cc1nn(C2CCN(C)CC2)cc1-c1cnc(N)c(-c2nc3c(C#N)cccc3o2)c1 [Example 41.40] | 99.2
CC(O)c1nn(C2CCN(C)CC2)cc1-c1cnc(N)c(-c2nc3c(C#N)cccc3o2)c1 (stereo not shown) [Example 41.41] | 99.7
COc1cccc2nc(-c3cc(-c4cn(C5CCN(C)CC5)nc4CO)cnc3N)oc12 [Example 41.42] | 100.0
COCc1nn(C2CCN(C)CC2)cc1-c1cnc(N)c(-c2nc3cccc(OC)c3o2)c1 [Example 41.43] | 100.0
Nc1ncc(-c2ccc(OCCN3CCOCC3)cc2)cc1-c1nc2cccnc2o1 [Example 43A.2] | 97.2
Nc1ncc(-c2ccc(OCCN3CCCC3)cc2)cc1-c1nc2cccnc2o1 [Example 43A.3] | 98.7
Nc1ncc(-c2ccc(OCCN3CCCC3)cc2)cc1-c1nc2ncccc2o1 [Example 43B.1] | 99.8
CN(C)CCOc1ccc(-c2cnc(N)c(-c3nc4ncccc4o3)c2)cc1 [Example 43B.2] | 96.9
CCN(CC)CCOc1ccc(-c2cnc(N)c(-c3nc4ncccc4o3)c2)cc1 [Example 43B.3] | 99.6
CN1CCC(Oc2ccc(-c3cnc(N)c(-c4nc5ncccc5o4)c3)cc2)C1 (stereo not shown) [Example 43B.4] | 99.3
CN1CCC[C@H]1COc1ccc(-c2cnc(N)c(-c3nc4ncccc4o3)c2)cc1 [Example 43B.5] | 99.4
Nc1ncc(-c2ccc(OCCN3CCOCC3)cc2)cc1-c1nc2ncccc2o1 [Example 43B.6] | 96.4
CN1CCN(CCOc2ccc(-c3cnc(N)c(-c4nc5ncccc5o4)c3)cc2)CC1 [Example 43B.7] | 98.1

Same assay, conditions: test compound at 1 μM; first value quoted; read-out: % Axl tyrosine kinase inhibition at 1 μM concentration

SMILES | inhibition at 1 µM [%]
COc1ccc2oc(-c3cc(-c4cnn(C5CCN(C)CC5)c4)cnc3N)nc2c1 [Example 35A, 3-(5-methoxy-1,3-benzoxazol-2-yl)-5-[1-(1-methyl-4-piperidyl)pyrazol-4-yl]pyridin-2-amine] | 100
Cc1cccc2nc(-c3cc(-c4cnn(C5CCN(C)CC5)c4)cnc3N)oc12 [Example 36, 3-(7-methyl-1,3-benzoxazol-2-yl)-5-[1-(1-methyl-4-piperidyl)pyrazol-4-yl]pyridin-2-amine] | 100
Nc1ncc(-c2cnn(C3CCNCC3)c2)cc1-c1nc2ncc(F)cc2o1 [Example 37, 3-(6-fluorooxazolo[4,5-b]pyridin-2-yl)-5-[1-(4-piperidyl)pyrazol-4-yl]pyridin-2-amine] | 98.4
CNC(=O)[C@@H]1C[C@@H](n2cc(-c3cnc(N)c(-c4nc5ccccc5o4)c3)cn2)CN1C [Example 39, (2S,4R)-4-[4-[6-amino-5-(1,3-benzoxazol-2-yl)-3-pyridyl]pyrazol-1-yl]-N,1-dimethyl-pyrrolidine-2-carboxamide] | 99.9
Nc1ncc(-c2cn(C3CCNCC3)nn2)cc1-c1nc2ccccc2o1 [Example 40, 3-(1,3-benzoxazol-2-yl)-5-[1-(4-piperidyl)triazol-4-yl]pyridin-2-amine] | 100
Nc1ncc(-c2ccc(OCCCN3CCCC3)cc2)cc1-c1nc2cccnc2o1 [Example 42, 3-oxazolo[5,4-b]pyridin-2-yl-5-[4-(3-pyrrolidin-1-ylpropoxy)phenyl]pyridin-2-amine] | 99.7
